Values of other authors in PubChem BioAssay AID1259409 (Chemical Carcinogenesis Research Information System (CCRIS), 2018).

Tested on: rodent chemically induced tumor inhibition, incidence and multiplicity
Test: CCRIS tumor inhibitor studies
Conditions: Dose [Inhibitor]: 0

| Compound | tumour outcome (control, treated, inhibition, significance) (Carcinogen: N-METHYL-N-NITROSOUREA, 684-93-5, 400 MG/KG IN DIET FOR THE DURATION OF STUDY BEGINNING 7 D PRIOR TO CARCINOGEN DOSE (STUDY DURATION: 187 D), Route [Inhibitor]: ORAL, Species: RAT, Strain/Sex: SPRAGUE-DAWLEY/FEMALE, Target Tissue: Type of Lesion: MAMMARY GLAND: TUMOR, Dose [Carcinogen]: 50 MG/KG BW ONCE, Promoter: NONE USED) | tumour outcome (control, treated, inhibition, significance) (Carcinogen: 7,12-DIMETHYLBENZ[A]ANTHRACENE, 57-97-6, 2 UMOL IN 100 µL ACETONE:DMSO (9:1) 2/WK FOR 17 WK APPLIED 30 MIN PRIOR TO EACH PROMOTER DOSE (STUDY DURATION: 18 WK), Route [Inhibitor]: DERMAL, Species: MOUSE, Strain/Sex: ICR/FEMALE, Target Tissue: Type of Lesion: SKIN: PAPILLOMA, Dose [Carcinogen]: 50 UG IN 100 µL ACETONE ONCE, Promoter: 12-O-TETRADECANOYLPHORBOL-13-ACETATE, 16561-29-8) |
| --- | --- | --- |
| CCC1(c2ccc(N)cc2)CCC(=O)NC1=O (configuration not stated) | 100%, 100%, 0%, not significant |  |
| CC1(C)[C@H](O)CC[C@]2(C)C3=CC[C@@]4(C)[C@@H]5C[C@](C)(CO)CC[C@]5(C)CC[C@]4(C)C3=CC[C@@H]12 |  | 87%, 13%, 85%, not calculated |
